Measured values taken from patent US5200409A, “Composition and use of substituted 1,3-dithiolo-and 1,4-dithiinoquinoxalines as an antimicrobial” (The Dow Chemical Company, priority 1992, dated 1993).
In brackets after ≈: the same amount, converted by molar mass. Read-outs that look alike come from different tables or passages of the source.

Key:
[1] = test system: Escherichia coli (Ec); assay: Minimum inhibitory concentration (MIC) in nutrient agar; assay type: cell-based, Escherichia coli ATCC 11229; details: 48 h
Procedure: (§1) The minimum inhibitory concentration (MIC) for the compounds listed in Table I is determined for 9 bacteria, using nutrient agar: and 7 yeast and fungi, using malt yeast agar. A one percent solution of the test compound is prepared in a mixture of acetone and water. Nutrient agar is prepared at pH 6.8, representing a neutral medium, and at pH 8.2, representing an alkaline medium. The nutrient agars are prepared by adding 23 g of nutrient agar to one-liter of deionized water. In addition, the alkaline medium is prepared by adjusting a 0.04M solution of N-[tris-(hydroxymethyl)methyl]-glycine buffered deionized water with concentrated sodium hydroxide to a pH of […]. Malt yeast agar is prepared by adding 3 g yeast extract and 45 g malt agar per liter of deionized water. The specific agar is dispensed in 30 ml aliquots into 25×200 mm test tubes, capped and autoclaved for 15 minutes at 115° C. The test tubes containing the agar are cooled in a water bath until the temperature of the agar is 48° C. Then, an appropriate amount of the one percent solution of the test compound is added (except in the controls where no compound is added) to the respective test tubes so that the final concentrations are 500, 250, 100, 50, 25, 10, 5, 2.5, 1.0 and zero parts per million of the test compound in the agar, thus having a known concentration of test compound dispersed therein. The contents of the test tubes are then transferred to respective petri plates. After drying for 24 hours, the petri plates containing nutrient agar are inoculated with bacteria and those containing malt yeast agar are inoculated with yeast and fungi.
(§2) The inoculation with bacteria is accomplished by using the following procedure. Twenty-four hour-cultures of each of the bacteria are prepared by incubating the respective bacteria in tubes containing nutrient broth for 24 hours at 30° C. in a shaker. Dilutions of each of the 24 hour-cultures are made so that nine separate suspensions (one for each of the nine test bacteria) are made, each containing 10^8 colony forming units (CFU) per ml of suspension of a particular bacteria. Aliquots of 0.3 ml of each of the bacterial suspensions are used to fill the individual wells of Steer's Replicator. For each microbial suspension, 0.3 ml was used to fill three wells (i.e., three wells of 0.3 ml each) so that for the nine different bacteria, 27 wells are filled. The Steer's Replicator is then used to inoculate both the neutral and alkaline pH nutrient agar petri plates.
(§3) The inoculated petri plates are incubated at 30° C. for 48 hours and then read to determine if the test compound which is incorporated into the agar prevented growth of the respective bacteria.
(§4) Table II lists the bacteria, yeast and fungi used in the MIC test described above along with their respective American Type Culture Collection (ATCC) identification numbers.

[2] = test system: Enterobacter aerogenes (Ea); assay: as above; assay type: cell-based, Enterobacter aerogenes ATCC 13048; details: Klebsiella aerogenes
Procedure: as §1, §2, §3, §4

[3] = test system: Penicillium chrysogenum (Pc); assay: Minimum inhibitory concentration (MIC) in malt yeast agar; assay type: cell-based, Penicillium chrysogenum ATCC 9480; details: malt yeast agar; 30° C.; 72 hours for fungi; read-out: Minimum Inhibitory Concentration, Pc
Procedure: as §1
(§5) The inoculation with the yeast and fungi is accomplished as follows. Cultures of yeast and fungi are incubated for seven days on malt yeast agar at 30° C. These cultures are used to prepare suspensions by the following procedure. A suspension of each organism is prepared by adding 10 ml of sterile saline and 10 microliters of octylphenoxy polyethoxy ethanol to the agar slant of yeast or fungi. The sterile saline/octylphenoxy polyethoxy ethanol solution is then agitated with a sterile swab to suspend the microorganism grown on the slant. Each resulting suspension is diluted into sterile saline (1 part suspension: 9 parts sterile saline). Aliquots of these dilutions are placed in individual wells of Steer's Replicator and petri plates inoculated as previously described. The petri plates are incubated at 30° C. and read after 48 hours for yeast and 72 hours for fungi.
as §4

[4] = test system: Aureobasidium pullulan (Ap); assay: as above; assay type: cell-based, Aureobasidium pullulan ATCC 16622; details: malt yeast agar; 30° C.; 48 hours for yeast and 72 hours for fungi; read-out: Minimum Inhibitory Concentration, Ap
Procedure: as §1, §5, §4

[5] = test system: Salmonella choleraesuis (Sc); assay: Minimum inhibitory concentration (MIC) in nutrient agar; assay type: cell-based, Salmonella choleraesuis ATCC 10708; details: Salmonella enterica
Procedure: as §1, §2, §3, §4

[6] = test system: Staphylococcus aureus (Sa); assay: as above; assay type: cell-based, Staphylococcus aureus ATCC 6538
Procedure: as §1, §2, §3, §4

[7] = test system: Proteus vulgaris (Pv); assay: as above; assay type: cell-based, Proteus vulgaris ATCC 881
Procedure: as §1, §2, §3, §4

[8] = test system: Fusarium oxysporum (Fo); assay: Minimum inhibitory concentration (MIC) in malt yeast agar; assay type: cell-based, Fusarium oxysporum ATCC 48112; details: malt yeast agar; 30° C.; 72 hours for fungi; read-out: Minimum Inhibitory Concentration, Fo
Procedure: as §1, §5, §4

[9] = test system: Aspergillus niger (An); assay: as above; assay type: cell-based, Aspergillus niger ATCC 16404; details: malt yeast agar; 30° C.; 72 hours for fungi; read-out: Minimum Inhibitory Concentration, An
Procedure: as §1, §5, §4

[10] = test system: Candida albicans (Ca); assay: as above; assay type: cell-based, Candida albicans ATCC 10231; details: malt yeast agar; 30° C.; 48 hours for yeast; read-out: Minimum Inhibitory Concentration, Ca
Procedure: as §1, §5, §4

[11] = test system: Bacillus subtilis (Bs); assay: Minimum inhibitory concentration (MIC) in nutrient agar; assay type: cell-based, Bacillus subtilis ATCC 8473
Procedure: as §1, §2, §3, §4

[12] = test system: Klebsiella pneumoniae (Kp); assay: as above; assay type: cell-based, Klebsiella pneumoniae ATCC 8308
Procedure: as §1, §2, §3, §4

[13] = test system: Saccharomyces cerevisiae (Sc); assay: Minimum inhibitory concentration (MIC) in malt yeast agar; assay type: cell-based, Saccharomyces cerevisiae ATCC 4105; details: malt yeast agar, 30° C., 48 hours for yeast, read-out: Minimum Inhibitory Concentration, Sc
Procedure: as §1, §5, §4

[14] = test system: Trichoderma viride (Tv); assay: as above; assay type: cell-based, Trichoderma viride ATCC 8678; details: read-out: Minimum Inhibitory Concentration, Tv
Procedure: as §1, §5, §4

[15] = test system: Pseudomonas aeruginosa (PRD-10); assay: Minimum inhibitory concentration (MIC) in nutrient agar; assay type: cell-based, Pseudomonas aeruginosa ATCC 15442
Procedure: as §1, §2, §3, §4

[16] = test system: Pseudomonas aeruginosa (Pa); assay: as above; assay type: cell-based, Pseudomonas aeruginosa ATCC 10145; details: 48 hours
Procedure: as §1, §2, §3, §4

[17] = pH 6.8, read-out: Minimum Inhibitory Concentration, Ec
[18] = pH 8.2, read-out: Minimum Inhibitory Concentration, Ec
[19] = 48 h, pH 8.2, read-out: Minimum Inhibitory Concentration, Ea
[20] = 48 h, pH 8.2, read-out: Minimum Inhibitory Concentration, Sc
[21] = pH 6.8, nutrient agar, 30° C., 48 hours, read-out: Minimum Inhibitory Concentration, Sa
[22] = pH 8.2, nutrient agar, 30° C., 48 hours, read-out: Minimum Inhibitory Concentration, Sa
[23] = 48 h, pH 8.2, read-out: Minimum Inhibitory Concentration, Pv
[24] = pH 6.8, nutrient agar, 30° C., 48 hours, read-out: Minimum Inhibitory Concentration, Bs
[25] = pH 8.2, nutrient agar, 30° C., 48 hours, read-out: Minimum Inhibitory Concentration, Bs
[26] = 48 h, pH 8.2, read-out: Minimum Inhibitory Concentration, Kp
[27] = malt yeast agar, 30° C., 72 hours for fungi
[28] = 48 h, pH 8.2, read-out: Minimum Inhibitory Concentration, PRD
[29] = 48 h, pH 6.8, read-out: Minimum Inhibitory Concentration, Ea
[30] = 48 h, pH 6.8, read-out: Minimum Inhibitory Concentration, Sc
[31] = 48 h, pH 6.8, read-out: Minimum Inhibitory Concentration, Pv
[32] = pH 6.8, nutrient agar, 30° C., 48 hours, read-out: Minimum Inhibitory Concentration, Kp
[33] = 48 h, pH 6.8, read-out: Minimum Inhibitory Concentration, PRD

SMILES | MIC [1, 17] [mg/L] | MIC [1, 18] [mg/L] | MIC [2, 19] [mg/L] | MIC [3] [mg/L] | MIC [5, 20] [mg/L] | MIC [6, 21] [mg/L] | MIC [6, 22] [mg/L] | MIC [7, 23] [mg/L] | MIC [8] [mg/L] | MIC [9] [mg/L] | MIC [10] [mg/L] | MIC [11, 24] [mg/L] | MIC [11, 25] [mg/L] | MIC [12, 26] [mg/L] | MIC [13] [mg/L] | MIC [14, 27] [mg/L] | MIC [15, 28] [mg/L] | MIC ([16]; pH 8.2, 30° C.) [mg/L] | MIC [2, 29] [mg/L] | MIC [5, 30] [mg/L] | further results
N#CC1=C(C#N)Sc2nc3cc(C(F)(F)F)ccc3nc2S1 [K, 7-trifluoromethyl-1,4-dithiino-(2,3-b)-quinoxaline-2,3-dicarbonitrile] | 50 (≈ 149 µM) | > 500 | > 500 | 25 (≈ 74.3 µM) | > 500 | 25 (≈ 74.3 µM) | 100 (≈ 297 µM) | > 500 | 25 (≈ 74.3 µM) | 25 (≈ 74.3 µM) | < 10 | < 10 | 100 (≈ 297 µM) | > 500 | < 10 | 25 (≈ 74.3 µM) | > 500 | > 500 |  |  | MIC ([2]; pH 6.8, nutrient agar, 30° C., 48 hours, read-out: Minimum Inhibitory Concentration, Ea): 250 mg/L (≈ 743 µM); MIC [4]: < 10 mg/L; MIC ([5]; pH 6.8, nutrient agar, 30° C., 48 hours, read-out: Minimum Inhibitory Concentration, Sc): 50 mg/L (≈ 149 µM); MIC ([7]; pH 6.8, nutrient agar, 30° C., 48 hours, read-out: Minimum Inhibitory Concentration, Pv): 50 mg/L (≈ 149 µM); MIC ([12]; 48 h, pH 6.8, read-out: Minimum Inhibitory Concentration, Kp): 50 mg/L (≈ 149 µM); MIC ([15]; pH 6.8, nutrient agar, 30° C., 48 hours, read-out: Minimum Inhibitory Concentration, PRD): 250 mg/L (≈ 743 µM)
COc1ccc2nc3c(nc2c1)SC(C#N)=C(C#N)S3 [J, 7-methoxy-1,4-dithiino-(2,3-b)-quinoxaline-2,3-dicarbonitrile] | > 500 | > 500 | > 500 | 25 (≈ 83.8 µM) | > 500 |  | 25 (≈ 83.8 µM) | > 500 | 25 (≈ 83.8 µM) | 25 (≈ 83.8 µM) | 25 (≈ 83.8 µM) | < 10 | 25 (≈ 83.8 µM) | > 500 | < 10 |  | > 500 | > 500 | > 500 | > 500 | MIC ([6]; 48 h, pH 6.8, read-out: Minimum Inhibitory Concentration, Sa): < 10 mg/L; MIC [7, 31]: > 500 mg/L; MIC [12, 32]: > 500 mg/L; MIC ([14]; 72 h): 100 mg/L (≈ 335 µM); MIC [15, 33]: > 500 mg/L; MIC ([16]; pH 6.8, 30° C.): > 500 mg/L
COc1ccc2nc3c(nc2c1)SC(=C(C#N)C#N)S3 [U, 6-Methoxy-1,3-dithiolo-(4,5-b)-quinoxaline-2-ylidene-propanedinitrile] | > 500 | > 500 | > 500 | > 500 | > 500 | > 500 |  | > 500 | > 500 | > 500 | > 500 |  |  | > 500 | > 500 | > 500 | > 500 | > 500 | > 500 | > 500 | MIC ([6]; 48 h, pH 8.2, read-out: Minimum Inhibitory Concentration, Sa): > 500 mg/L; MIC [7, 31]: > 500 mg/L; MIC ([11]; 48 h, pH 6.8, read-out: Minimum Inhibitory Concentration, Bs): > 500 mg/L; MIC ([11]; 48 h, pH 8.2, read-out: Minimum Inhibitory Concentration, Bs): > 500 mg/L; MIC [12, 32]: > 500 mg/L; MIC [15, 33]: > 500 mg/L; MIC ([16]; pH 6.8, 30° C.): > 500 mg/L
